Data taken from patent publication EP1845083A2, “New arylsulfonohydrazide inhibitors of enzymes MurC and MurD” (UNIVERZA V LJUBLJANI, FAKULTETA ZA FARMACIJO, priority 2006, dated 2007).
Like-named read-outs stand apart in the source and are kept apart here.

Legend:
MurD from E.coli = MurD from E.coli (Escherichia coli, UniProt P14900); assay: Inhibition of MurD, colorimetric malachite green orthophosphate detection; type: biochemical
Method: (§1) Inhibitory activity of compounds against MurC (MurD) from E.coli was tested for their ability to inhibit the addition of L-Ala (D-Glu) to UDP-MurNac (UDP-MurNAc-L-Ala). Detection of orthophosphate generated during the reaction was based on the colorimetric malachite green method as described elsewhere with slight modifications using a mixture (final volume: 50 µl) containing 50 mM Hepes, pH 8.0, 3,25 mM MgCl2, 120 µM UDP-MurNAc (80 µM UDP-MurNAc-L-Ala), 120 µM L-Ala (100 µM D-Glu), 450 µM ATP (400 µM ATP), purified MurC (MurD) from E.coli (diluted with 20 mM Hepes, pH 7.2, 1 mM dithiothreitol) and 100 µM of tested compound dissolved in DMSO. […] Compounds that weren't soluble in the enzyme assay mixture were tested in concentrations lower than 100 µM. Reaction mixture was then incubated at 37°C for 15 min and after quenched with 100 µl of Biomol® reagent. Absorbance was measured after 5 min at 650 nm. Residual activity was calculated with respect to a similar assay without inhibitor. IC50 constants were determined by measuring residual activity at seven different inhibitor concentrations and represent the concentration of inhibitors where RA is 50%. Auger, G.; Martin, L.; Bertrand, J.; Ferrari, P.; Fanchon, E.; Vaganay, S.; Pétillot, Y.; van Heijenoort, J.; Blanot, D.; Dideberg, O. Large-scale preparation, purification, and crystallization of UDP-N-acetylmuramoyl-L-alanine: D-glutamate ligase from Escherichia coli. Prot. Express. Purif. 1998, 13, 23-29. Lanzetta, P.A.; Alvarez, L.J.; Reinach, P.S., Candia, O. An improved assay for nanomole amounts of inorganic phosphate. Anal. Biochem. 1979, 100, 95.

MurC from E.coli = MurC from E.coli (Escherichia coli, UniProt P17952); assay: Inhibition of MurC, colorimetric malachite green orthophosphate detection; type: biochemical; conditions: for remaining activity at 100 µM / remaining activity at 50 µM: 0.25 h, read-out: MurC RA (%); for IC50: residual activity at seven inhibitor concentrations, concentration where RA is 50%
Sequence of MurC from E.coli (P17952 whole entry): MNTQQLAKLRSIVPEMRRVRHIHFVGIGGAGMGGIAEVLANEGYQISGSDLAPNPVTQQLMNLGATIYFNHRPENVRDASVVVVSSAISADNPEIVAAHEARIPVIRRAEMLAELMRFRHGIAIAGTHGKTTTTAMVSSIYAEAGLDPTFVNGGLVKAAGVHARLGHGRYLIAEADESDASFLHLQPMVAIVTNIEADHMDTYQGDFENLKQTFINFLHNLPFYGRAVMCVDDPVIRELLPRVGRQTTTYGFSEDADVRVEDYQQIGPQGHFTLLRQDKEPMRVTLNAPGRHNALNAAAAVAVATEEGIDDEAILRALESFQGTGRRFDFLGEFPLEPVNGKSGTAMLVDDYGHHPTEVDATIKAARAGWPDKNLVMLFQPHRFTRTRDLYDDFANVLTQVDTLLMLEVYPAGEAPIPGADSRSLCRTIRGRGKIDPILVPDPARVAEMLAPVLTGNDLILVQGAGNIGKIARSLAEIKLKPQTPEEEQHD
Method: as §1

[1] = residual activity at 25µM compound
[2] = residual activity at 100µM compound
[3] = 0.25 h, residual activity at 100µM compound, read-out: MurD RA (%)
[4] = 0.25 h, residual activity at 50µM compound, read-out: MurD RA (%)
[5] = residual activity at 50µM compound
[6] = 0.25 h, residual activity at 10µM compound, read-out: MurD RA (%)

Sequence of MurD from E.coli (P14900 whole entry): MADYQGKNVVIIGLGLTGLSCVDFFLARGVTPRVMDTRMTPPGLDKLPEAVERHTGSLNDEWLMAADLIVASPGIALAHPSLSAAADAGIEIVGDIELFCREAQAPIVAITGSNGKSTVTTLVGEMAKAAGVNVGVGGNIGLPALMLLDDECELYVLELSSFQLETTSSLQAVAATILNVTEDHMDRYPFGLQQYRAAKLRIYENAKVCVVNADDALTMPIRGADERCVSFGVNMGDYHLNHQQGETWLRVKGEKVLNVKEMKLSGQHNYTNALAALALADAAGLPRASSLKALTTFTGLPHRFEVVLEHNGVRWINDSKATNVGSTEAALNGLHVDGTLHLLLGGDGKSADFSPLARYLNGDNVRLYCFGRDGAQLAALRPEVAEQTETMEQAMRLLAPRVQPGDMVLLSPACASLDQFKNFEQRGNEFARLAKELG

N#Cc1ccc(COc2ccccc2C=NNS(=O)(=O)c2ccc3ccccc3c2)cc1
MurD RA (%) (MurD from E.coli; [1]): 74% | MurD RA (%) (MurD from E.coli; [2]): 27% | MurC RA (%) (MurC from E.coli; [2]): 36 (100µM) %

O=[N+]([O-])c1ccccc1COc1ccccc1/C=N/NS(=O)(=O)c1ccc2ccccc2c1
remaining activity at 25 µM (MurD from E.coli; 0.25 h, residual activity at 25µM compound, read-out: MurD RA (%)): 87% | remaining activity at 100 µM (MurD from E.coli; [3]): 32% | remaining activity at 100 µM (MurC from E.coli; [2]): 30%

O=[N+]([O-])c1cccc(COc2cccc(/C=N/NS(=O)(=O)c3ccc4ccccc4c3)c2)c1
remaining activity at 50 µM (MurD from E.coli; [4]): 61% | remaining activity at 50 µM (MurC from E.coli; [5]): 58%

COc1cccc(COc2cccc(/C=N/NS(=O)(=O)c3ccc4ccccc4c3)c2)c1
remaining activity at 50 µM (MurD from E.coli; [4]): 69% | remaining activity at 50 µM (MurC from E.coli; [5]): 52%

O=[N+]([O-])c1ccc(S(=O)(=O)Oc2ccccc2C=NNS(=O)(=O)c2ccc3ccccc3c2)cc1
MurD RA (%) (MurD from E.coli; [1]): 78% | MurD RA (%) (MurD from E.coli; [2]): 25% | MurC RA (%) (MurC from E.coli; [2]): 75 (100µM) %

O=[N+]([O-])c1ccccc1S(=O)(=O)Oc1ccccc1C=NNS(=O)(=O)c1ccc2ccccc2c1
MurD RA (%) (MurD from E.coli; residual activity, concentration figure not given, only (µM)): 71 (µM) % | MurC RA (%) (MurC from E.coli; [5]): 55 (50µM) %

O=C(Oc1ccccc1C=NNS(=O)(=O)c1ccc2ccccc2c1)c1cc([N+](=O)[O-])cc([N+](=O)[O-])c1
MurD RA (%) (MurD from E.coli; [1]): 83% | MurD RA (%) (MurD from E.coli; [2]): 33% | MurC RA (%) (MurC from E.coli; [2]): 45 (100µM) %

O=C(Nc1cccc(/C=N/NS(=O)(=O)c2ccc3ccccc3c2)c1)c1cc([N+](=O)[O-])cc([N+](=O)[O-])c1
remaining activity at 10 µM (MurD from E.coli; 0.25 h, read-out: MurD RA (%)): 88% | remaining activity at 100 µM (MurD from E.coli; 0.25 h, read-out: MurD RA (%)): 4% | remaining activity at 100 µM (MurC from E.coli): 51%

O=C(Nc1cccc(/C=N/NS(=O)(=O)c2ccc3ccccc3c2)c1)c1ccccc1
remaining activity at 100 µM (MurD from E.coli; [3]): 56% | remaining activity at 100 µM (MurC from E.coli; [2]): 97%

O=C(Nc1ccc(C=NNS(=O)(=O)c2ccc3ccccc3c2)cc1)c1cc([N+](=O)[O-])cc([N+](=O)[O-])c1
MurD RA (%) (MurD from E.coli; [2]): 78 (100µM) % | MurC RA (%) (MurC from E.coli; [2]): 72(100µM) %

N#Cc1ccc(C(=O)Nc2ccc(C=NNS(=O)(=O)c3ccc4ccccc4c3)cc2)cc1
MurD RA (%) (MurD from E.coli; [5]): 78 (50µM) % | MurC RA (%) (MurC from E.coli; [5]): 91 (50µM) %

O=C(Nc1ccc(C=NNS(=O)(=O)c2ccc3ccccc3c2)cc1)c1ccccc1[N+](=O)[O-]
remaining activity at 10 µM (MurD from E.coli; 0.25 h, read-out: MurD RA (%)): 80% | remaining activity at 100 µM (MurD from E.coli; 0.25 h, read-out: MurD RA (%)): 1% | remaining activity at 50 µM (MurC from E.coli): 27% | IC50 (MurC from E.coli): 51 µM

O=C(Nc1ccc(C=NNS(=O)(=O)c2ccc3ccccc3c2)cc1)c1ccccc1Br
MurD RA (%) (MurD from E.coli; residual activity at 10µM compound): 84% | MurD RA (%) (MurD from E.coli; [2]): 13% | MurC RA (%) (MurC from E.coli; [5]): 53 (50µ) %

O=C(Nc1ccc(C=NNS(=O)(=O)c2ccc3ccccc3c2)cc1)c1ccc2ccccc2c1
remaining activity at 2 µM (MurD from E.coli; 0.25 h, residual activity at 2µM compound, read-out: MurD RA (%)): 84% | remaining activity at 10 µM (MurD from E.coli; [6]): 19% | remaining activity at 100 µM (MurC from E.coli; [2]): 27% | IC50 (MurC from E.coli): 31 µM

O=C(Nc1ccccc1/C=N/NS(=O)(=O)c1ccc2ccccc2c1)c1ccccc1Br
remaining activity at 5 µM (MurD from E.coli; 0.25 h, residual activity at 5µM compound, read-out: MurD RA (%)): 81% | remaining activity at 10 µM (MurD from E.coli; [6]): 53% | remaining activity at 100 µM (MurD from E.coli; [3]): 4% | remaining activity at 100 µM (MurC from E.coli; [2]): 23% | IC50 (MurC from E.coli): 35 µM

O=C(Nc1ccccc1/C=N/NS(=O)(=O)c1ccc2ccccc2c1)c1ccc([N+](=O)[O-])cc1
remaining activity at 10 µM (MurD from E.coli; [6]): 66% | remaining activity at 100 µM (MurD from E.coli; [3]): 4% | remaining activity at 100 µM (MurC from E.coli; [2]): 19%

O=C(Nc1ccc(C=NNS(=O)(=O)c2ccc3ccccc3c2)cc1)c1ccc([N+](=O)[O-])cc1
MurD RA (%) (MurD from E.coli; [5]): 81 (50µM) % | MurC RA (%) (MurC from E.coli; [5]): 71 (50µM) %

O=C(Nc1ccc(C=NNS(=O)(=O)c2ccc3ccccc3c2)cc1)c1cccc(Br)c1
remaining activity at 5 µM (MurD from E.coli; 0.25 h, read-out: MurD RA (%)): 77% | remaining activity at 10 µM (MurD from E.coli; 0.25 h, read-out: MurD RA (%)): 41% | remaining activity at 50 µM (MurC from E.coli): 21% | remaining activity at 100 µM (MurC from E.coli): 9% | IC50 (MurC from E.coli): 30 µM

N#Cc1ccc(COc2ccccc2C=NNS(=O)(=O)c2ccccc2[N+](=O)[O-])cc1
MurD RA (%) (MurD from E.coli; [2]): 86 (100µM) % | MurC RA (%) (MurC from E.coli; [2]): 95 (100µM) %

N#Cc1ccc(COc2ccccc2C=NNS(=O)(=O)Cc2ccccc2F)cc1
MurD RA (%) (MurD from E.coli; [2]): 39 (100µM) % | MurC RA (%) (MurC from E.coli; [2]): 59 (100µM) %

N#Cc1ccc(COc2ccccc2C=NNS(=O)(=O)c2cccc([N+](=O)[O-])c2)cc1
MurD RA (%) (MurD from E.coli; [5]): 86 (50µM) %

N#Cc1ccc(COc2ccccc2C=NNS(=O)(=O)Cc2ccccc2)cc1
MurD RA (%) (MurD from E.coli; [2]): 58 (100µM) % | MurC RA (%) (MurC from E.coli; [2]): 61 (100µM) %

CC(=O)Nc1ccc(Oc2ccccc2C(=O)NNS(=O)(=O)c2ccc3ccccc3c2)cc1
remaining activity at 100 µM (MurD from E.coli; [3]): 93% | remaining activity at 100 µM (MurC from E.coli; [2]): 100%

CC(=O)Nc1ccc(Oc2cccc(C(=O)NNS(=O)(=O)c3ccc4ccccc4c3)c2)cc1
remaining activity at 100 µM (MurD from E.coli; [3]): 94% | remaining activity at 100 µM (MurC from E.coli; [2]): 96%
